Key:
[1] = tested on: Mus musculus; assay: Median survival time in Ehrlich carcinoma bearing Swiss Albino mice 9 days post dose at 3.5 mg/kg, ip; assay type: functional, organism-based; set-up: dose 3.5 mg/kg
[2] = tested on: Mus musculus; assay: Effect on weight variation in Ehrlich carcinoma bearing Swiss Albino mice 9 days post dose at 3.5 mg/kg, ip; assay type: functional, organism-based; set-up: dose 3.5 mg/kg
[3] = tested on: Mus musculus; assay: Increase in life span in Ehrlich carcinoma bearing Swiss Albino mice 9 days post dose at 3.5 mg/kg, ip; assay type: functional, organism-based; set-up: dose 3.5 mg/kg
[4] = tested on: Ehrlich; assay: Cytotoxicity against Ehrlich ascites carcinoma cells at 500 ug/ml; assay type: functional, Mus musculus
[5] = tested on: Mus musculus; assay: Median survival time in Ehrlich carcinoma bearing Swiss Albino mice 9 days post dose administered ip; assay type: functional
[6] = tested on: Ehrlich; assay: Cytotoxicity against Ehrlich ascites carcinoma cells at 250 ug/ml; assay type: functional, Mus musculus
[7] = tested on: Ehrlich; assay: Cytotoxicity against Ehrlich ascites carcinoma cells at 125 ug/ml; assay type: functional, Mus musculus
[8] = tested on: Mus musculus; assay: Effect on weight variation in Ehrlich carcinoma bearing Swiss Albino mice 9 days post dose administered ip; assay type: functional
[9] = tested on: Mus musculus; assay: Increase in life span in Ehrlich carcinoma bearing Swiss Albino mice 9 days post dose administered ip; assay type: functional

CISPLATIN
MST [1]: 17.3 days
Activity [2]: -17.3%
Activity [3]: 75.4%

O=Cc1c(N2CCOCC2)oc2cc(N3CCOCC3)c(F)cc2c1=O
Activity [4]: 70%
MST [5]: 11.14 days
Activity [6]: 0%
Activity [7]: 0%
Activity [8]: -15.89%
Activity [9]: 16.9%

O=Cc1c(N2CCCCC2)oc2cc(N3CCCCC3)c(F)cc2c1=O
Activity [4]: 100%
MST [5]: 11.6 days
Activity [6]: 100%
Activity [7]: 100%
Activity [8]: -9.5%
Activity [9]: 17.9%

O=Cc1c(N2CCCC2)oc2ccc(Cl)cc2c1=O
Activity [4]: 100%
Activity [6]: 100%
Activity [7]: 90%

O=Cc1c(N2CCCCC2)oc2ccc(Cl)cc2c1=O
Activity [4]: 100%
Activity [6]: 100%
Activity [7]: 100%

CN1CCN(c2oc3ccc(Cl)cc3c(=O)c2C=O)CC1
Activity [4]: 60%
Activity [6]: 60%
Activity [7]: 50%

O=Cc1c(N2CCOCC2)oc2ccc(Cl)cc2c1=O
Activity [4]: 100%
MST [5]: 12 days
Activity [6]: 100%
Activity [7]: 60%
Activity [8]: -16.81%
Activity [9]: 23.1%

CN1CCN(c2cc3oc(N4CCN(C)CC4)c(C=O)c(=O)c3cc2F)CC1
Activity [4]: 20%
Activity [6]: 0%
Activity [7]: 0%

— ChEMBL document CHEMBL1138983, “Design, synthesis, and evaluation of novel 6-chloro-/fluorochromone derivatives as potential topoisomerase inhibitor anticancer agents” (2006)
